Several values for one entry are separate records, joined by “and”; a condition that tells them apart may be missing. Equal values may be shown once.

The subject of assay [1] is T1, Plasmodium falciparum Dd2-attB-ScDHODH (transgenic line expressing yeast DHODH), asexual blood stages.
T1 construct: Dd2-attB-ScDHODH, the transgenic line that expresses yeast DHODH
In words: organism not typed. The arrangement: replicate k of 3 (each line is one of three independent assays; the three lines of one compound and parasite line follow each other). The method, then:
(§1) The overexpression of the fumarate-dependent yeast DHODH confers resistance to compounds that inhibit the parasite mETC, or the parasite DHODH enzyme that depends on ubiquinone provided by the parasite mETC. Assays were performed in three independent assays on a subset of compounds, and differences between the Dd2-attB parental line and the ScDHODH transgenic line were analyzed using two-sided Student’s t-tests.

Assay [2] has as its system T2, Plasmodium falciparum Dd2-attB (parental line), asexual blood stages.
T2 construct: Dd2-attB, the isogenic parental line
In words: microbe, parasite or virus in culture. Set-up: replicate k of 3 (each line is one of three independent assays; the three lines of one compound and parasite line follow each other). Conditions: n = 1; for Individual replicates / Log AC50 (M): 72 h; for AC50: Plasmodium falciparum, DD2, 72 h, read-out: Individual replicates / Log AC50 (converted). Here is the method:
as §1

Where [3] appears, read: 72 h; n = 1; read-out: Individual replicates / Log AC50 (converted).

In the case of `O=C(O)c1ccnc2cc(C(OCCN3CCOCC3)c3ccccc3Cl)[nH]c12` (centres unmarked) [NCGC00421890-01], the “Individual replicates / Log AC50 (M)” value was -5.3986 Log AC50 (M) and -5.2486 Log AC50 (M) in assay [1] (72 h, n = 1); -5.1986 Log AC50 (M) in assay [2]. The AC50 in assay [1] (setting [3]) was 5.03 µM; in assay [2], 5.64 µM.
For the compound `Oc1cc(-c2ccc(CN3CCOCC3)c(F)c2)cc2cccnc12` [NCGC00247756-01], the “Individual replicates / Log AC50 (M)” value in assay [1] (72 h, n = 1) is -5.2986 Log AC50 (M) and -5.2486 Log AC50 (M); in assay [2], -5.2986 Log AC50 (M). Moreover, the AC50 in assay [1] (setting [3]) and in assay [2] was 5.03 µM throughout.
As to `Cc1ccccc1C(OCCN1CCCCC1)c1cc2nccc(Cl)c2s1` (centres unmarked) [NCGC00481525-01], the “Individual replicates / Log AC50 (M)” value is -5.0486 Log AC50 (M) in assay [1] (72 h, n = 1); -5.0486 Log AC50 (M) and -4.9986 Log AC50 (M) in assay [2]. In addition, the AC50 was 10 µM in assay [1] (setting [3]) and 8.94 µM in assay [2].
Regarding `COC(=O)c1ccc(O)c2ncc(N(C)C)cc12` [NCGC00189506-01], the “Individual replicates / Log AC50 (M)” value in assay [1] (72 h, n = 1) is -5.0486 Log AC50 (M); in assay [2] it was -5.0986 Log AC50 (M) and -5.1486 Log AC50 (M). For the same compound, the AC50 in assay [1] (setting [3]) is 14.2 µM; in assay [2] it was 7.97 µM.
Turning to `Cc1ccc(NCc2ccc(O)c3ncccc23)c(F)c1` [NCGC00184895-01], the “Individual replicates / Log AC50 (M)” value in assay [1] (72 h, n = 1) is on record as -4.7486 Log AC50 (M); in assay [2] it was -4.7986 Log AC50 (M). Further, the AC50 was 15.9 µM in assay [1] (setting [3]) and 17.8 µM in assay [2].
With `CN(C)CCNC(=O)c1cccc(-c2cc(O)c3ncccc3c2)c1` [NCGC00244526-01], the “Individual replicates / Log AC50 (M)” value in assay [1] (72 h, n = 1) was -4.7986 Log AC50 (M); in assay [2], -5.0986 Log AC50 (M) and -4.9486 Log AC50 (M). In addition, the AC50 in assay [1] (setting [3]) is 17.8 µM; in assay [2] it was 14.2 µM.
Take `O=C(O)c1ccc(O)c2ncc(N3CCOCC3)cc12` [NCGC00241036-02]: the AC50 was 10 µM in assay [1] (setting [3]) and 14.2 µM in assay [2].
`Oc1ccc(CNCc2ccccc2F)c2cccnc12` [NCGC00184908-01]: the “Individual replicates / Log AC50 (M)” value in assay [1] (72 h, n = 1) was -4.7486 Log AC50 (M) and -5.1486 Log AC50 (M) (2×); in assay [2], -5.3986 Log AC50 (M) and -5.0486 Log AC50 (M) and -5.1986 Log AC50 (M).
On to `Oc1ccc(CNc2ccc(F)cc2F)c2cccnc12` [NCGC00184894-01], for which the “Individual replicates / Log AC50 (M)” value in assay [1] (72 h, n = 1) is -4.8486 Log AC50 (M); in assay [2], -4.9486 Log AC50 (M) and -5.0486 Log AC50 (M). Also, the values for the AC50 in assay [1] (setting [3]) and in assay [2] were 17.8 µM and 14.2 µM, respectively.
As to `COC(=O)c1ccc(O)c2ncc(N3CC[C@H](N)C3)cc12` [NCGC00241042-01], the “Individual replicates / Log AC50 (M)” value in assay [1] (72 h, n = 1) was -4.7486 Log AC50 (M); in assay [2] it was -4.9986 Log AC50 (M) and -4.8486 Log AC50 (M). Moreover, the AC50 in assay [1] (setting [3]) and in assay [2] was 17.8 µM throughout.
Regarding `CN(C)c1ccc(-c2cc(O)c3ncccc3c2)cc1` [NCGC00183795-01], the “Individual replicates / Log AC50 (M)” value in assay [1] (72 h, n = 1) was -4.7486 Log AC50 (M) and -4.9986 Log AC50 (M). In addition, in assay [2], the “Individual replicates / Log AC50 (M)” value was -5.0986 Log AC50 (M) and -5.1486 Log AC50 (M); the AC50 is 8.94 µM.
For the compound `Cc1ccccc1C(OCCN1CCCCC1)c1cc2nccc(B(O)O)c2s1` (centres unmarked) [NCGC00481524-01], the “Individual replicates / Log AC50 (M)” value in assay [1] (72 h; n = 1) is -4.7986 Log AC50 (M); in assay [2] it was -4.8486 Log AC50 (M) and -4.7986 Log AC50 (M). Further, the AC50 in assay [1] (setting [3]) was 15.9 µM; in assay [2], 14.2 µM.
For the compound `Oc1ccc(CCc2ccccc2)c2cccnc12` [NCGC00184902-01], the “Individual replicates / Log AC50 (M)” value in assay [1] (72 h, n = 1) is -4.8486 Log AC50 (M) and -5.1486 Log AC50 (M); in assay [2] it was -5.2486 Log AC50 (M). Besides, the AC50 in assay [1] (setting [3]) and in assay [2] was 7.1 µM throughout.
As for `COC(=O)c1ccnc2sc(N(CCCN3CCCCC3)c3ccccc3Cl)nc12` [NCGC00480953-01], the “Individual replicates / Log AC50 (M)” value in assay [1] (72 h, n = 1) is -5.0986 Log AC50 (M); in assay [2] it was -5.2486 Log AC50 (M) and -5.3486 Log AC50 (M). In addition, the AC50 in assay [1] (setting [3]) and in assay [2] was 4.48 µM each time.
For `O=C(Nc1ccccn1)c1ccc(-c2cc(O)c3ncccc3c2)cc1` [NCGC00247739-01], the “Individual replicates / Log AC50 (M)” value in assay [1] (72 h, n = 1) is -4.7986 Log AC50 (M); in assay [2] it was -4.9986 Log AC50 (M) and -4.8986 Log AC50 (M). Further, the results for the AC50 in assay [1] (setting [3]) and in assay [2] were 8.94 µM and 7.97 µM, respectively.
`O=C(c1cccc(-c2cc(O)c3ncccc3c2)c1)N1CCCCC1` [NCGC00244533-01]: the “Individual replicates / Log AC50 (M)” value in assay [1] (72 h, n = 1) was -5.1486 Log AC50 (M) and -4.9486 Log AC50 (M); in assay [2], -5.0486 Log AC50 (M) and -5.0986 Log AC50 (M). Besides, the AC50 was 7.1 µM in assay [1] (setting [3]) and 6.33 µM in assay [2].

(Values after article PMC7822874, “Chemoprotective antimalarials identified through quantitative high-throughput screening of Plasmodium blood and liver stage parasites” (Scientific Reports, 2021).)
